According to ChEMBL document CHEMBL4219185, “DNA sequence-specific ligands. XVII. Synthesis, spectral properties, virological and biochemical studies of fluorescent dimeric bisbenzimidazoles DBA(n)” (Bioorg Med Chem, 2018):
Calls of active or inactive are those of the source. No cut-off for these calls is given here.

What was measured:
[1] = system: MCF-10A; test: Cytotoxicity against human MCF10A cells assessed as reduction in cell viability by MTT assay; assay type: cell-based
[2] = system: DNA; test: Binding affinity to Escherichia coli supercoiled pHOT1 DNA assessed as inhibition of topoisomerase-1-mediated relaxation of supercoiled DNA at 2.5 to 20 uM after 30 mins by agarose gel electrophoresis method; assay type: nucleic-acid assay
[3] = Drug uptake in human U251 cell nucleus treated at 10 to 20 uM after 20 to 40 hrs by fluorescent microscopic method; assay type: ADME, subcellular; conditions: u-251, 20 µM
[4] = system: MCF7; test: Cytotoxicity against human MCF7 cells assessed as reduction in cell viability by MTT assay; assay type: cell-based
[5] = target: Human immunodeficiency virus type 1 integrase (Human immunodeficiency virus 1, UniProt Q7ZJM1); test: Inhibition of HIV1 integrase
Chain of Human immunodeficiency virus type 1 integrase (Q7ZJM1 whole entry): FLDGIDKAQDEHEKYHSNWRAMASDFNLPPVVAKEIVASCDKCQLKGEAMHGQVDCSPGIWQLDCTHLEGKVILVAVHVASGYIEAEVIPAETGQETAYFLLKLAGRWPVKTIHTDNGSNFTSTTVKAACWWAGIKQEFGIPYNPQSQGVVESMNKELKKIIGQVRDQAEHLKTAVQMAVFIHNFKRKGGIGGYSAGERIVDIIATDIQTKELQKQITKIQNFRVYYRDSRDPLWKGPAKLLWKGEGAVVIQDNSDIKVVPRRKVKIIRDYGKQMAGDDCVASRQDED

[6] = system: HCT-116; test: Cytotoxicity against human HCT116 cells assessed as reduction in cell viability by MTT assay; assay type: cell-based
[7] = system: Human alphaherpesvirus 1; test: Antiviral activity against Herpes simplex virus-1 infected in cells; assay type: functional, organism-based
[8] = Cytotoxicity against human […] cells assessed as reduction in cell viability by MTT assay; assay type: cell-based
[9] = system: Cytomegalovirus; test: Antiviral activity against CMV infected in cells; assay type: functional, organism-based
[10] = system: Calf thymus DNA; test: Binding affinity to calf thymus DNA groove using DNA cholesteric liquid crystal dispersions assessed as positive band appearance at 1.1 to 5.45 uM by CD spectral analysis; assay type: nucleic-acid assay; conditions: Bos taurus
[11] = system: Calf thymus DNA; test: Binding affinity to calf thymus DNA assessed as bathochromic shift at 4.4 x 10^-6M by absorption spectral analysis; assay type: nucleic-acid assay; conditions: Bos taurus
[12] = system: Calf thymus DNA; test: Binding affinity to calf thymus DNA at 1 uM by fluorescence spectral analysis; assay type: nucleic-acid assay; conditions: Bos taurus
[13] = system: Calf thymus DNA; test: Binding affinity to calf thymus DNA assessed as hypochromic shift at 4.4 x 10^-6M by absorption spectral analysis; assay type: nucleic-acid assay; conditions: Bos taurus
[14] = system: Human alphaherpesvirus 1; test: Antiviral activity against Herpes simplex virus-1 strain F infected in African green monkey Vero cells assessed as late protein gb level at 50 ug/ml after 48 hrs by immunostaining based luminescent microscopic method (reference value: 95.6%); assay type: functional
[15] = system: Calf thymus DNA; test: Binding affinity to calf thymus DNA assessed as bathochromic shift at 2.38 x 10^-6M by absorption spectral analysis; assay type: nucleic-acid assay; conditions: Bos taurus
[16] = system: Calf thymus DNA; test: Binding affinity to calf thymus DNA at 0.95 uM by fluorescence spectral analysis; assay type: nucleic-acid assay; conditions: Bos taurus
[17] = system: Calf thymus DNA; test: Binding affinity to calf thymus DNA assessed as hypochromic shift at 2.38 x 10^-6M by absorption spectral analysis; assay type: nucleic-acid assay; conditions: Bos taurus
[18] = system: Calf thymus DNA; test: Binding affinity to calf thymus DNA groove using DNA cholesteric liquid crystal dispersions assessed as positive band appearance at 0.47 to 4.73 uM by CD spectral analysis; assay type: nucleic-acid assay; conditions: Bos taurus
[19] = system: DNA; test: Binding affinity to Escherichia coli supercoiled pHOT1 DNA assessed as inhibition of topoisomerase-1-mediated relaxation of supercoiled DNA at 10 uM after 30 mins by agarose gel electrophoresis method; assay type: nucleic-acid assay

## CN(C)CCCNC(=O)c1ccc2nc(-c3ccc4nc(CNC(=O)CCCCCCCCCCCC(=O)NCc5nc6ccc(-c7nc8ccc(C(=O)NCCCN(C)C)cc8[nH]7)cc6[nH]5)[nH]c4c3)[nH]c2c1
[1]
  IC50: > 240 µM
[2]
  inhibition: Active
[3]
  Drug uptake: Active
[4]
  IC50: > 240 µM
[5]
  IC50: 0.06 µM
[6]
  IC50: > 240 µM
[7]
  Activity: Active
[8]
  IC50: > 240 µM
[9]
  Activity: Active

## CN1CCN(c2ccc3nc(-c4ccc5nc(CNC(=O)CCCCC(=O)NCc6nc7ccc(-c8nc9ccc(N%10CCN(C)CC%10)cc9[nH]8)cc7[nH]6)[nH]c5c4)[nH]c3c2)CC1
[1]
  IC50: 20 to 90 µM
[4]
  IC50: 20 to 90 µM
[6]
  IC50: 20 to 90 µM
[8]
  IC50: 20 to 90 µM

## CN1CCN(c2ccc3nc(-c4ccc5nc(CNC(=O)CCCCCCC(=O)NCc6nc7ccc(-c8nc9ccc(N%10CCN(C)CC%10)cc9[nH]8)cc7[nH]6)[nH]c5c4)[nH]c3c2)CC1
[1]
  IC50: 20 to 90 µM
[4]
  IC50: 20 to 90 µM
[6]
  IC50: 20 to 90 µM
[8]
  IC50: 20 to 90 µM

## CN(C)CCCNC(=O)c1ccc2nc(-c3ccc4nc(CNC(=O)CCCCCC(=O)NCc5nc6ccc(-c7nc8ccc(C(=O)NCCCN(C)C)cc8[nH]7)cc6[nH]5)[nH]c4c3)[nH]c2c1
[10]
  Activity: Active
[11]
  Activity: Active
[12]
  Activity: Active
[1]
  IC50: > 240 µM
[2]
  inhibition: Active
[3]
  Drug uptake: Active
[4]
  IC50: > 240 µM
[13]
  Activity: Active
[6]
  IC50: > 240 µM
[8]
  IC50: > 240 µM

## CN1CCN(c2ccc3nc(-c4ccc5nc(CNC(=O)CCCCCCCCCCCC(=O)NCc6nc7ccc(-c8nc9ccc(N%10CCN(C)CC%10)cc9[nH]8)cc7[nH]6)[nH]c5c4)[nH]c3c2)CC1
[1]
  IC50: 20 to 90 µM
[4]
  IC50: 20 to 90 µM
[6]
  IC50: 20 to 90 µM
[8]
  IC50: 20 to 90 µM

## CN1CCN(c2ccc3nc(-c4ccc5nc(CNC(=O)CC(=O)NCc6nc7ccc(-c8nc9ccc(N%10CCN(C)CC%10)cc9[nH]8)cc7[nH]6)[nH]c5c4)[nH]c3c2)CC1
[1]
  IC50: 20 to 90 µM
[2]
  inhibition: Active
[4]
  IC50: 20 to 90 µM
[6]
  IC50: 20 to 90 µM
[8]
  IC50: 20 to 90 µM

## CN1CCN(c2ccc3nc(-c4ccc5nc(CNC(=O)CCCCCCCCC(=O)NCc6nc7ccc(-c8nc9ccc(N%10CCN(C)CC%10)cc9[nH]8)cc7[nH]6)[nH]c5c4)[nH]c3c2)CC1
[1]
  IC50: 20 to 90 µM
[4]
  IC50: 20 to 90 µM
[6]
  IC50: 20 to 90 µM
[8]
  IC50: 20 to 90 µM

## Nc1nc2c(ncn2COCCO)c(=O)[nH]1 [ACYCLOVIR]
[14]
  Activity: 0.1%

## CN1CCN(c2ccc3nc(-c4ccc5nc(CNC(=O)CCCCCCCCCCC(=O)NCc6nc7ccc(-c8nc9ccc(N%10CCN(C)CC%10)cc9[nH]8)cc7[nH]6)[nH]c5c4)[nH]c3c2)CC1
[1]
  IC50: 20 to 90 µM
[4]
  IC50: 20 to 90 µM
[6]
  IC50: 20 to 90 µM
[8]
  IC50: 20 to 90 µM

## CN1CCN(c2ccc3nc(-c4ccc5nc(CNC(=O)CCCCCCCCCCCCC(=O)NCc6nc7ccc(-c8nc9ccc(N%10CCN(C)CC%10)cc9[nH]8)cc7[nH]6)[nH]c5c4)[nH]c3c2)CC1
[1]
  IC50: 20 to 90 µM
[4]
  IC50: 20 to 90 µM
[6]
  IC50: 20 to 90 µM
[8]
  IC50: 20 to 90 µM

## CN1CCN(c2ccc3nc(-c4ccc5nc(CNC(=O)CCCCCCCC(=O)NCc6nc7ccc(-c8nc9ccc(N%10CCN(C)CC%10)cc9[nH]8)cc7[nH]6)[nH]c5c4)[nH]c3c2)CC1
[1]
  IC50: 20 to 90 µM
[2]
  inhibition: Active
[4]
  IC50: 20 to 90 µM
[6]
  IC50: 20 to 90 µM
[8]
  IC50: 20 to 90 µM

## CN1CCN(c2ccc3nc(-c4ccc5nc(CNC(=O)CCCCCC(=O)NCc6nc7ccc(-c8nc9ccc(N%10CCN(C)CC%10)cc9[nH]8)cc7[nH]6)[nH]c5c4)[nH]c3c2)CC1
[1]
  IC50: 20 to 90 µM
[2]
  inhibition: Active
[4]
  IC50: 20 to 90 µM
[6]
  IC50: 20 to 90 µM
[8]
  IC50: 20 to 90 µM

## CN1CCN(c2ccc3nc(-c4ccc5nc(CNC(=O)CCC(=O)NCc6nc7ccc(-c8nc9ccc(N%10CCN(C)CC%10)cc9[nH]8)cc7[nH]6)[nH]c5c4)[nH]c3c2)CC1
[1]
  IC50: 20 to 90 µM
[4]
  IC50: 20 to 90 µM
[6]
  IC50: 20 to 90 µM
[8]
  IC50: 20 to 90 µM

## CN(C)CCCNC(=O)c1ccc2nc(-c3ccc4nc(CNC(=O)CC(=O)NCc5nc6ccc(-c7nc8ccc(C(=O)NCCCN(C)C)cc8[nH]7)cc6[nH]5)[nH]c4c3)[nH]c2c1
[1]
  IC50: > 240 µM
[2]
  inhibition: Active
[4]
  IC50: > 240 µM
[6]
  IC50: > 240 µM
[7]
  Activity: Active
[8]
  IC50: > 240 µM

## CN(C)CCCNC(=O)c1ccc2nc(-c3ccc4nc(CNC(=O)CCCCCCCC(=O)NCc5nc6ccc(-c7nc8ccc(C(=O)NCCCN(C)C)cc8[nH]7)cc6[nH]5)[nH]c4c3)[nH]c2c1
[1]
  IC50: > 240 µM
[15]
  Activity: Active
[16]
  Activity: Active
[2]
  inhibition: Active
[3]
  Drug uptake: Active
[4]
  IC50: > 240 µM
[17]
  Activity: Active
[14]
  Activity: 10%
[6]
  IC50: > 240 µM
[7]
  Activity: Active
[8]
  IC50: > 240 µM
[18]
  Activity: Active

## CN1CCN(c2ccc3nc(-c4ccc5nc(CNC(=O)CCCC(=O)NCc6nc7ccc(-c8nc9ccc(N%10CCN(C)CC%10)cc9[nH]8)cc7[nH]6)[nH]c5c4)[nH]c3c2)CC1
[1]
  IC50: 20 to 90 µM
[4]
  IC50: 20 to 90 µM
[6]
  IC50: 20 to 90 µM
[19]
  inhibition: Active
[8]
  IC50: 20 to 90 µM

## CN1CCN(c2ccc3nc(-c4ccc5nc(CNC(=O)CCCCCCCCCC(=O)NCc6nc7ccc(-c8nc9ccc(N%10CCN(C)CC%10)cc9[nH]8)cc7[nH]6)[nH]c5c4)[nH]c3c2)CC1
[1]
  IC50: 20 to 90 µM
[4]
  IC50: 20 to 90 µM
[6]
  IC50: 20 to 90 µM
[8]
  IC50: 20 to 90 µM

## CN(C)CCCNC(=O)c1ccc2nc(-c3ccc4nc(CNC(=O)CCCCCCCCCC(=O)NCc5nc6ccc(-c7nc8ccc(C(=O)NCCCN(C)C)cc8[nH]7)cc6[nH]5)[nH]c4c3)[nH]c2c1
[1]
  IC50: > 240 µM
[2]
  inhibition: Active
[3]
  Drug uptake: Active
[4]
  IC50: > 240 µM
[6]
  IC50: > 240 µM
[8]
  IC50: > 240 µM

## CN(C)CCCNC(=O)c1ccc2nc(-c3ccc4nc(CNC(=O)CCCC(=O)NCc5nc6ccc(-c7nc8ccc(C(=O)NCCCN(C)C)cc8[nH]7)cc6[nH]5)[nH]c4c3)[nH]c2c1
[1]
  IC50: > 240 µM
[2]
  inhibition: Active
[3]
  Drug uptake: Active
[4]
  IC50: > 240 µM
[6]
  IC50: > 240 µM
[8]
  IC50: > 240 µM
